Assay results as given in PubChem BioAssay AID2060613 (Molecular Pharmacology Branch, DTP, NCI, 2025).
Several values for one entry are separate records, joined by “and”; a condition that tells them apart may be missing. Equal entries are not always repeated.

Test system: 233499-124-R-J3-PDC complex spheroid viability
Test: Anticancer human tumor 233499-124-R-J3-PDC patient-derived colon adenocarcinoma cell line growth inhibition [CLK]
Conditions: for viability, T/C: stronger effect = lower value
Outline: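 Patient-derived tumor cells grown as complex spheroids with HUVEC endothelial cells and mesenchymal stem cells, treated with drug combinations. Concentrations descend in half-log steps from near clinical Cmax, or from 10 microM if Cmax unknown.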

[1] = curve of first compound, second compound 0.0316 µM
[2] = curve of first compound, second compound 0.1 µM
[3] = curve of first compound, second compound 0.316 µM
[4] = curve of first compound, second compound 1 µM
[5] = curve of first compound, second compound 3.16 µM
[6] = curve of first compound, second compound 10 µM
[7] = second compound 0.0316 µM, first compound 0.0316 µM
[8] = second compound 0.0316 µM, first compound 0.1 µM
[9] = second compound 0.0316 µM, first compound 0.316 µM
[10] = second compound 0.0316 µM, first compound 1 µM
[11] = second compound 0.0316 µM, first compound 3.16 µM
[12] = second compound 0.0316 µM, first compound 10 µM
[13] = second compound 0.1 µM, first compound 0.0316 µM
[14] = second compound 0.1 µM, first compound 0.1 µM
[15] = second compound 0.1 µM, first compound 0.316 µM
[16] = second compound 0.1 µM, first compound 1 µM
[17] = second compound 0.1 µM, first compound 3.16 µM
[18] = second compound 0.1 µM, first compound 10 µM
[19] = second compound 0.316 µM, first compound 0.0316 µM
[20] = second compound 0.316 µM, first compound 0.1 µM
[21] = second compound 0.316 µM, first compound 0.316 µM
[22] = second compound 0.316 µM, first compound 1 µM
[23] = second compound 0.316 µM, first compound 3.16 µM
[24] = second compound 0.316 µM, first compound 10 µM
[25] = second compound 1 µM, first compound 0.0316 µM
[26] = second compound 1 µM, first compound 0.1 µM
[27] = second compound 1 µM, first compound 0.316 µM
[28] = second compound 1 µM, first compound 1 µM
[29] = second compound 1 µM, first compound 3.16 µM
[30] = second compound 1 µM, first compound 10 µM
[31] = second compound 3.16 µM, first compound 0.0316 µM
[32] = second compound 3.16 µM, first compound 0.1 µM
[33] = second compound 3.16 µM, first compound 0.316 µM
[34] = second compound 3.16 µM, first compound 1 µM
[35] = second compound 3.16 µM, first compound 3.16 µM
[36] = second compound 3.16 µM, first compound 10 µM
[37] = second compound 10 µM, first compound 0.0316 µM
[38] = second compound 10 µM, first compound 0.1 µM
[39] = second compound 10 µM, first compound 0.316 µM
[40] = second compound 10 µM, first compound 1 µM
[41] = second compound 10 µM, first compound 3.16 µM
[42] = second compound 10 µM, first compound 10 µM
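Further: spheroids exposed to the drug combinations for seven days.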
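Wherever viability, T/C is given: percent viability relative to DMSO vehicle control wells taken as 100%.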

## O=C(c1cc(Cc2n[nH]c(=O)c3ccccc23)ccc1F)N1CCN(C(=O)C2CC2)CC1 + CN1CCN(c2cc(C(=O)Nc3cc4cc(-c5cnn(C)c5)ccc4cn3)ccn2)CC1
[1]
  IC50: > 10000 nM
[2]
  IC50: > 10000 nM
[3]
  IC50: > 10000 nM
[4]
  IC50: < 31.6 nM
[5]
  IC50: < 31.6 nM
[6]
  IC50: < 31.6 nM
[7]
  viability, T/C: 79.9%
[8]
  viability, T/C: 98.1%
[9]
  viability, T/C: 96.8%
[10]
  viability, T/C: 108%
[11]
  viability, T/C: 99.4%
[12]
  viability, T/C: 93.2%
[13]
  viability, T/C: 98.6%
[14]
  viability, T/C: 105%
[15]
  viability, T/C: 103%
[16]
  viability, T/C: 109%
[17]
  viability, T/C: 110%
[18]
  viability, T/C: 82.4%
[19]
  viability, T/C: 103%
[20]
  viability, T/C: 99.4%
[21]
  viability, T/C: 103%
[22]
  viability, T/C: 93.8%
[23]
  viability, T/C: 96.8%
[24]
  viability, T/C: 87.1%
[25]
  viability, T/C: 3.57%
[26]
  viability, T/C: 2.51%
[27]
  viability, T/C: 2.71%
[28]
  viability, T/C: 16.4%
[29]
  viability, T/C: 3.61%
[30]
  viability, T/C: 1.27%
[31]
  viability, T/C: 0.91%
[32]
  viability, T/C: 0.94%
[33]
  viability, T/C: 0.75%
[34]
  viability, T/C: 0.71%
[35]
  viability, T/C: 0.8%
[36]
  viability, T/C: 1.09%
[37]
  viability, T/C: 0.64%
[38]
  viability, T/C: 0.56%
[39]
  viability, T/C: 0.6%
[40]
  viability, T/C: 4.25%
[41]
  viability, T/C: 0.89%
[42]
  viability, T/C: 1.84%

## CC(=O)O[C@H]1C(=O)[C@@]2(C)[C@H]([C@H](OC(=O)c3ccccc3)[C@]3(O)C[C@H](OC(=O)[C@H](O)[C@@H](NC(=O)c4ccccc4)c4ccccc4)C(C)=C1C3(C)C)[C@]1(OC(C)=O)CO[C@@H]1C[C@@H]2O
Compound 0.0316 µM
  viability, T/C: 63.2% and 74.1%
Compound 0.1 µM
  viability, T/C: 38.9% and 31.5%
Compound 0.316 µM
  viability, T/C: 19.9% and 8.71%
Compound 1 µM
  viability, T/C: 17.4% and 11%
Compound 3.16 µM
  viability, T/C: 20.4% and 9.09%
Compound 10 µM
  viability, T/C: 24.4% and 16.4%
Curve of compound
  IC50: 59.1 nM and 60.7 nM

## Nc1ccccc1NC(=O)c1ccc(CNC(=O)OCc2cccnc2)cc1 + CNC(=O)c1ccc(Nc2nc(OC3CCCC3)c3c(-c4ccc5nc(C)oc5c4)c[nH]c3n2)c(OC)c1
[1]
  IC50: 1830 nM
[2]
  IC50: 731 nM
[3]
  IC50: 233 nM
[4]
  IC50: 199 nM
[5]
  IC50: 443 nM
[6]
  IC50: 157 nM
[7]
  viability, T/C: 96.7%
[8]
  viability, T/C: 86%
[9]
  viability, T/C: 91.8%
[10]
  viability, T/C: 79.7%
[11]
  viability, T/C: 23.1%
[12]
  viability, T/C: 0.94%
[13]
  viability, T/C: 64.9%
[14]
  viability, T/C: 67.4%
[15]
  viability, T/C: 63.6%
[16]
  viability, T/C: 44.8%
[17]
  viability, T/C: 9.08%
[18]
  viability, T/C: 0.5%
[19]
  viability, T/C: 77%
[20]
  viability, T/C: 66.7%
[21]
  viability, T/C: 43.6%
[22]
  viability, T/C: 20%
[23]
  viability, T/C: 4.82%
[24]
  viability, T/C: 0.23%
[25]
  viability, T/C: 74.6%
[26]
  viability, T/C: 70.1%
[27]
  viability, T/C: 35.7%
[28]
  viability, T/C: 15.2%
[29]
  viability, T/C: 2.15%
[30]
  viability, T/C: 0.09%
[31]
  viability, T/C: 71.1%
[32]
  viability, T/C: 65.6%
[33]
  viability, T/C: 67.2%
[34]
  viability, T/C: 8.74%
[35]
  viability, T/C: 1.22%
[36]
  viability, T/C: 0.1%
[37]
  viability, T/C: 70.8%
[38]
  viability, T/C: 50.4%
[39]
  viability, T/C: 44.5%
[40]
  viability, T/C: 20.6%
[41]
  viability, T/C: 1.09%
[42]
  viability, T/C: 0.15%

## COc1c(OCCCN2CCOCC2)ccc2c3n(c(=NC(=O)c4cnc(N)nc4)nc12)CCN3
Compound 0.00316 µM
  viability, T/C: 83%
Compound 0.01 µM
  viability, T/C: 86%
Compound 0.0316 µM
  viability, T/C: 88.8%
Compound 0.1 µM
  viability, T/C: 49.3%
Compound 0.316 µM
  viability, T/C: 34.4%
Compound 1 µM
  viability, T/C: 3.62%
Curve of compound
  IC50: 141 nM

## COc1cccc2c1C(=O)c1c(O)c3c(c(O)c1C2=O)CC(O)(C(=O)CO)CC3OC1CC(N)C(O)C(C)O1 (stereo not given) + CNC(=O)c1ccc(Nc2nc(OC3CCCC3)c3c(-c4ccc5nc(C)oc5c4)c[nH]c3n2)c(OC)c1
[1]
  IC50: 336 nM
[2]
  IC50: 286 nM
[3]
  IC50: 155 nM
[4]
  IC50: 142 nM
[5]
  IC50: 115 nM
[6]
  IC50: 79.9 nM
[7]
  viability, T/C: 92%
[8]
  viability, T/C: 85.1%
[9]
  viability, T/C: 38.5%
[10]
  viability, T/C: 38.5%
[11]
  viability, T/C: 13.5%
[12]
  viability, T/C: 6.81%
[13]
  viability, T/C: 71.3%
[14]
  viability, T/C: 71.7%
[15]
  viability, T/C: 40.7%
[16]
  viability, T/C: 34.2%
[17]
  viability, T/C: 17%
[18]
  viability, T/C: 2.92%
[19]
  viability, T/C: 61.7%
[20]
  viability, T/C: 62.1%
[21]
  viability, T/C: 33.8%
[22]
  viability, T/C: 13.8%
[23]
  viability, T/C: 4.56%
[24]
  viability, T/C: 1.31%
[25]
  viability, T/C: 51.1%
[26]
  viability, T/C: 75.6%
[27]
  viability, T/C: 19.3%
[28]
  viability, T/C: 1.71%
[29]
  viability, T/C: 1.27%
[30]
  viability, T/C: 0.38%
[31]
  viability, T/C: 55%
[32]
  viability, T/C: 53%
[33]
  viability, T/C: 27.4%
[34]
  viability, T/C: 1.95%
[35]
  viability, T/C: 0.8%
[36]
  viability, T/C: 0.35%
[37]
  viability, T/C: 56.1%
[38]
  viability, T/C: 48.5%
[39]
  viability, T/C: 11.7%
[40]
  viability, T/C: 0.74%
[41]
  viability, T/C: 0.74%
[42]
  viability, T/C: 0.32%
